Data as given in patent publication US6383814B1, “Cationic amphiphiles for intracellular delivery of therapeutic molecules” (Genzyme Corporation, priority 1994, dated 2002).

Assays:
lungs of balb/c mice = system: lungs of balb/c mice
Procedure: This assay was used to assess the ability of the cationic amphiphiles of the invention to transfect cells in vivo from live specimens. In the assay, the lungs of balb/c mice were instilled intra-nasally (the procedure can also be performed trans-tracheally) with 100 μl of cationic amphiphile:DNA complex, which was allowed to form during a 15-minute period prior to administration according to the following procedure. The amphiphile (premixed with co-lipid, see below) was hydrated in water for 10 minutes, a period sufficient to yield a suspension at twice the final concentration required. This was vortexed for two minutes and aliquoted to provide 55 microliter quantities for each mouse to be instilled. Similarly, DNA encoding the reporter (CAT) gene was diluted with water to a concentration twice the required final concentration, and then aliquoted at 55 microliters for each mouse to be instilled. The lipid was gently combined with the DNA (in a polystyrene tube), and the complex allowed to form for 15 minutes before the mice were instilled therewith.
The plasmid used (pCMVHI-CAT, see Example 4) provides an encoding DNA for chloramphenicol transferase enzyme. Specifics on the amphiphile:DNA complexes are provided below.
Two days following transfection, mice were sacrificed, and the lungs and trachea removed, weighed, and homogenized in a buffer solution (250 mM Tris, pH 7.8, 5 mM EDTA). The homogenate was darifed by centrifugation, and the deacetylases therein were inactivated by heat treatment at 70° C. for 10 minutes. Lysate was incubated overnight with acetyl coenzyme A and C^14-chloramphenicol. CAT enzyme activity was then visualized by thin layer chromatography (“TLC”) following an ethyl acetate extraction.
The presence of the enzyme CAT will cause an acetyl group to be transferred from acetyl coenzyme A to C^14-chloramphenicol. The acetylated/radiolabeled chloramphenicol migrates faster on a TLC plate and thus its presence can be detected.
With respect to the comparison provided by FIG. 10, the following conditions are of note. The transfection solution for spermidine cholesterol carbamate contained 6 mM DNA measured as concentration of nucleotide, and 1.5 mM of cationic amphiphile. […] For transfection with DC-chol, the molar ratio of DC-chol to DOPE was 3:2, and the concentrations of cationic amphiphile and of DNA (as nucleotide) were 1.3 mM and 0.9 mM, respectively. For transfection with DMRIE, the molar ratio of DMRIE to DOPE was 1:1 and the concentrations of cationic amphiphile and of DNA were 1.7 mM and 12 mM, respectively.

[1] = system: Immortalized human cystic fibrosis airway cells (CFT-1); assay: SPQ assay of cAMP-stimulated Cl− channel activity after pCMV-CFTR transfection; type: cell-based
Procedure: Immortalized human cystic fibrosis airway cells (CFT-1, as above) were used.
In preparation for the assay, the cells were grown on glass coverslips until approximately 60% confluent The cells were hen transfected with a complex of spermidine cholesterol carbamate:DOPE (1:1) and a plasmid(pCMV-CFTR) containing a cDNA that encodes wild type human CFTR pCMV-CFTR plasmid is a construct containing the encoding sequence for CFTR and the following regulatory elements, a CMV promoter and enhancer, and an SV40 polyadenylation signal. Additional constructs suitable for the practice of this example include pMT-CFTR, Cheng et al., Cell, 63,827-834 (1990). The complex used was 10.5 μmolar of spermidine cholesterol carbamate (also of DOPE) and 30 μmolar of pCMV-CFTR based on nucleotide.
48 hours after amphiphile-mediated transfection, cells were tested for cAMP-stimulated Cl^− channel activity using the 6-methoxy-N-(3-sulfopropyl)quinolinium (“SPQ”) assay. […] In the assay, cAMP-dependent Cl^− channel activity was assessed using “SPQ” (from Molecular Probes, Eugene, Oreg.), a halide-sensitive fluorophore. Increases in halide permeability results in a more rapid increase in SPQ fluorescence, and the rate of change (rather than the absolute change in fluorescence) is the important variable in assessing Cl^− permeability. […]

lung and heart = assay: Intravenous delivery of pCF-1CAT complex, CAT expression in organs; type: in vivo, BALB/c mouse; settings: for organ distribution of CAT expression: DNA 0.9 mM, i.v. tail vein, 48 h
Procedure: The reporter plasmid pCF-1CAT (Example 4) was used and was purified to minimize endotoxin (<1 EU/mg pDNA), and also chromosomal DNA contamination (<2%). Amphiphile No. 53 (1:1 with DOPE)/DNA complex was prepared according to the procedures of Example 3. The amphiphile was provided as the free base, the plasmid was prepared as a sodium salt in water, and the DOPE was provided in zwitterionic form.
The animal model was the BALB/c mouse. Females 6-8 weeks old weighing 16-18 g were injected intravenously using the tail vein, using 5 animals per group. The volume of lipid:pDNA complex used was 100 μl in all experiments. Unless noted otherwise, mice were sacrificed 48 h following administration of the complex. Organs were frozen immediately on dry ice to store for subsequent analysis.
Expression of chloramphenicol acetyl transferase (CAT) was quantitated using a radiochemical assay for CAT enzymatic activity. Organs Were weighed and homogenized on ice in a lysis buffer containing protease inhibitors. The lysate was freeze-thawed 3×, centrifuged, and heated to 65° C. to inactivate deacetylases before adding it to a reaction mixture containing ^14C-chloraamphenicol. After an incubation at 37° C., the mixture was extracted with ethyl acetate, concentrated, spotted onto TLC plates and eluted with CHCl3/MeOH. Spots corresponding to the acylated reaction products were quantitated (Betagen) and converted to ng CAT activity using authentic CAT standards.

[2] = Excipient selection against amphiphile/DNA aggregate formation; type: physicochemical; settings: particularly as DNA concentration is increased
Description: Additionally, the therapeutic compositions of the invention can in general be formulated with excipients (such as the carbohydrates lactose, trehalose, sucrose, mannitol, maltose or galactose) and may also be lyophilized (and then rehydrated) in the presence of such excipients prior to use. Conditions of optimized formulation for each amphiphile of the invention are capable of determination by those skilled in the pharmaceutical art. […] Addition of such excipients maintains the consistency of lyophilized pharmaceutical compositions during storage, and prevent difficulties such as aggregation, or insolubity, that may likely occur upon rehydration from the lyophilized state.

[3] = system: CFT-1 cell line (human cystic fibrosis bronchial epithelial cells); assay: Cell transfection assay (β-galactosidase expression); type: cell-based; settings: 1:1 mixture with DOPE, pCMVβ
Procedure: Following combination of the solutions, a thin film was produced by removing chloroform from the mixture by evaporation under reduced pressure (20 mm Hg). The film was further dried under vacuum (1 mm Hg) for 24 hours.
The resulting suspension was then diluted with 4 ml of water to yield a solution that is 670 μM in cationic amphiphile and 670 μM in neutral colipid.
For preparation of the transfecting solution, DNA encoding for β-galactosidase (pCMVβ, ClonTech., Palo Alto, Calif.) was dissolved in OptiMEM culture medium (Gibco/BRL No. 31885-013).
The resulting 335 μM solutions were then serially diluted 7 times to generate 8 separate amphiphile-containing solutions having concentrations ranging from 335 μM to 2.63 μM, with each resultant solution having a volume of 165 μl. Thus, 64 solutions were prepared in all, there being 8 wells each of 8 different concentrations of amphiphile/DOPE.
Independently, DNA solutions (165μl, 960 μM) were pipetted into 8 wells containing OptiMEM (165 μl), and the resulting 480 μM solutions were then serially diluted 7 times to generate 8 separate 165 μl solutions from each well, with the concentrations of DNA in the wells ranging from 480 μM to 3.75 μM. […]

[4] = system: Primary nasal polyp cells from a cystic fibrosis patient (Δ F508); assay: cAMP-stimulated transepithelial chloride secretion in modified Ussing chamber after pCMV-CFTR transfection; type: cell-based, human; settings: 1:1 with DOPE; 42 μmolar amphiphile, 60 μmolar pCMV-CFTR; forskolin and IBMX
Procedure: Primary (non-immortalized) nasal polyp cells from an adult cystic fibrosis patient (homozygous for the Δ F508mutation) were grown on collagen-coated permeable filter supports (Millicells) to form a polarized and confluent epithelial monolayer. Once the monolayer was electrically tight (about 5 to 7 days post seeding, and as indicated by the development of resistance across the cell sheet), the apical surface can be exposed to formulations of cationic amphiphile: DNA complex.
In this case, the amphiphile (spermidine cholesterol carbamate) was provided as a 1:1 (by mole) mixture with DOPE, and this mixture was then complexed with pCMV-CFTR plasmid vector (a construct encoding wild type human cystic fibrosis transmembrane conductance regulator protein, see above). Concentrations in the final mixture were 42 μmolar of spermidine cholesterol carbamate (and also of DOPE) and 60 μmolar (based on morality in nucleotides) of the plasmid expression vector.
Expression of CFTR was determined by measuring cAMP-stimulated transepithelial chloride secretion in a modified Ussing chamber, Zabner et al., Nature Genetics, 6, 75-83 […]. The mucosal side of the epithelium was bathed in Ringer's bicarbonate solution bubbled with 95% O2 and 5% CO2. […] Transepithelial voltage was clamped to 0 m V and short circuit current was recorded. […]

lungs of mice = assay: CAT assay, parts B and C: intra-nasal, pCF1/CAT or pCF2/CAT vectors; settings: mouse
Description: That the novel amphiphiles of the invention are an important contribution to the art is immediately seen by comparing their performance—as in vivo transfection enhancers—to that of closely related cationic amphiphiles that lack the novel T-shape. It has been determined that spermidine cholesterol carbamate provides a much greater level of enhancement than N^1-spermidine cholesteryl carbamate which contains the same number of carbon and nitrogen atoms in its cationic alkylamine component but which is linear and not “T-shaped”. Following generally the procedures of Example 3, part B, and using respectively 6 mM (as nucleotide), 1.5 mM, and 1.5 mM concentrations of DNA, amphiphile and of co-lipid, the transfection enhancement provided by spermidine cholesterol carbamate (amphiphile No.53), in relation to N^1-spermidine cholesteryl carbamate, was determined to be about 30 fold.
Also following the procedures of Example 3, part B, and using respectively 4 mM (as nucleotide), 1 mM, and 2 mM concentrations of DNA, amphiphile and co-lipid, the transfection enhancement provided by spermine cholesterol carbamate (amphiphile No. 67)—in relation to N^1-thermospermine cholesteryl carbamate and N^1-spermine cholesteryl carbamate to which spermine cholesterol carbamate is similarly related—is at least about 30 fold.

[5] = Transacylation reaction of amphiphile with co-lipid DOPE on co-storage; type: physicochemical
Description: Although heretofore unrecognized in the art, it has been determined also that certain co-lipids may react chemically with certain types of cationic amphiphiles under conditions of co-storage, there resulting new molecular species. Generation of such new species is believed to occur via mechanisms such as transacylation. In this regard, see FIG. 4 which depicts a transacylation reaction involving spermine cholesterol carbamate (No.67) and DOPE, there resulting lyso PE species and multiple forms of particular acyl-cationic amphiphile (designated No. 80).
It is expected that these phenomena would also apply to lyophilized amphiphile/DOPE preparations.
Accordingly, it is highly preferred to maintain such amphiphile/DOPE preparations at very cold temperatures, such as −70 degrees C.

[6] = Transgene expression by protonation state of the amphiphile in transfecting composition with DOPE; settings: amphiphile as free base; with DOPE zwitterion; plasmid DNA sodium salt in water
Description: An additional aspect of the invention concerns the protonation state of the cationic amphiphiles of the invention prior to their contacting plasmid DNA in order to form a therapeutic composition. It is within the practice of the invention to utilize fully protonated, partially protonated, or free base forms of the amphiphiles in order to form such therapeutic compositions. With respect to amphiphile No. 67 (spermine cholesterol carbamate), it has been observed that when providing this amphiphile for a transfecting composition with DOPE (itself provided as a zwitterion), transgene expression was best for the free base, but decreased if the amphiphile was prepared as an acetate salt. […] Under the circumstances described, the plasmid DNA provided for contacting with the amphiphile was prepared (without buffer) as a sodium salt in water.

[7] = 1.0-1.5 mM amphiphile, cholesterol 1:1, DNA 4.0-6.0 mM, intra-nasal

Compound: 1,2-dimyristyloxypropyl-3-dimethyl-hydroxyethyl ammonium bromide [DMRIE, reference compound]
- CAT activity in lung (lungs of balb/c mice; 1:1 molar with DOPE, 1.7 mM DMRIE, 1.7 mM DOPE, 1.2 mM plasmid DNA as nucleotide): 1 to 2 ng activity per 100 mg lung tissue

Compound: CC(C)CCCC(C)C1CCC2C3CC=C4CC(OC(=O)N(CCCN)CCCCN)CCC4(C)C3CCC12C (stereo not drawn) [amphiphile No. 53, N^4-spermidine cholesteryl carbamate]
- transferring CFTR-encoding plasmid into immortalized CF airway cells [1]: effective
- organ distribution of CAT expression (lung and heart; amphiphile/DNA molar ratio less than about 0.5): strongly weighted toward the lung
- organ distribution of CAT expression (lung and heart; amphiphile/DNA ratio of 1.25): substantial expression was found in the heart
- targeting to the lung over a range of amphiphile/DNA ratios (lung and heart; constant DNA concentration 0.9 mM, i.v.): remained relatively constant
- excipient preferred to prevent formation of amphiphile/DNA aggregates [2]: sucrose is preferred over mannitol
- transfection efficiency improved by a factor, relative to DMRIE:DOPE (1:1) [3]: about 5
- enhancement of in vivo transfection (ng CAT activity per 100 mg tissue) in relation to DMRIE and DC-Chol (lungs of balb/c mice; 1.5 mM amphiphile, 1:1 DOPE, 6 mM DNA (nucleotide), intra-nasal, 2 days): ≥ 20 fold
- transfection efficiency (ng CAT/100 mg tissue) with cholesterol as co-lipid, compared with DOPE as co-lipid (lungs of balb/c mice; [7]): less effective
- transfection with cholesterol as co-lipid, compared with DC-Chol/DOPE (lungs of balb/c mice; [7]): substantially more effective
- toxicity to the target cells (lungs of balb/c mice; about 0.75 mM amphiphile and 3.0 mM plasmid, versus the optimal 1.5 mM/6 mM): less toxic
- cAMP-stimulated current [4]: 0.5 to 2.5 μampere/cm^2
- activity of amphiphile (in vivo transfection) (lungs of mice): highly active
- in vivo transfection in comparison with non T-shaped amphiphiles having equivalent cationic alkylamine structure (lungs of mice): superior transfectants

Compound: CC(C)CCCC(C)C1CCC2C3CC=C4CC(OC(=O)N(CCCN)CCCCNCCCN)CCC4(C)C3CCC12C (stereo not drawn) [amphiphile No. 67, N^4-spermine cholesteryl carbamate]
- transacylation with DOPE ([5]; amphiphile as mono, di, or tri acetate salt): slow transacylations
- transacylation with DOPE ([5]; aqueous solution where bilayer-containing structures such as liposomes can form): will permit transacylation
- transacylation with DOPE ([5]; mixture of amphiphile and DOPE in chloroform solvent): does not appear to participate
- transgene expression [6]: best
- activity of amphiphile (in vivo transfection) (lungs of mice): highly active
- in vivo transfection in comparison with non T-shaped amphiphiles having equivalent cationic alkylamine structure (lungs of mice): superior transfectants

Compound: CC(C)CCC[C@@H](C)[C@H]1CC[C@H]2[C@@H]3CC=C4C[C@@H](OC(=O)N(CCCCNCCCN)CCCNCCCN)CC[C@]4(C)[C@H]3CC[C@]12C [amphiphile No. 75, N^1,N^8-Bis(3-aminopropyl)-N^4-spermidine cholesteryl carbamate]
- activity of amphiphile (in vivo transfection) (lungs of mice): highly active
